Patent publication US20250304623A1, “PEPTIDES FOR INTRACELLULAR DELIVERY” (UNIVERSIDADE DE SANTIAGO DE COMPOSTELA, priority 2022, published 2025)
*: point of attachment. NHNH2 = NN*

Tests used:
Type in all cases: cell-based
HepG2 cells = experiment: RLuc pDNA delivery, robotic library screening, HepG2; conditions: Oleyl
Description: (§1) Cells were seeded in a 96 well plate the day before the experiment at a concentration of 60,000 cell/mL (100 μL/w) in DMEM+10% FBS+1% Gln-Abt. For robotic library screening, the delivery of pDNA encoding for the expression of Renilla luciferase gene (RLuc, pRL-CMV (Promega, #E2261)) in six different cell lines was performed. Amphihilic molecule stock solutions in DMSO were diluted with DMEM and freshly mixed with pDNA stock solutions in DMEM prior to transfection experiments, to afford several complexes at different amphiphile concentration (2-10 μM) while maintaining a constant final pDNA concentration of 2 ng/μL. The mixture was shaken for 30 min at room temperature before the addition to the cells. The cell medium was aspirated, and cells were washed twice with PBS. Finally, 50 μL of the complex's solution were added to the cells and incubated for 4 h. After the incubation, the medium was replaced by 100 μL of fresh DMEM supplemented with 10% FBS. 72 hours after transfection the DMEM was removed, cells were washed once with HBSS and 90 μL of HBSS were added to each well. Cells were incubated at 37° C. for 30 minutes. Then basal luminescence levels were read in a plate reader. Immediately, 10 μL of coelenterazine h in HBSS were added to each well (5 μM final concentration) and cells were incubated at 37° C. for 10 minutes. Finally, the total luminescence measurement of the plates was performed. Amphiphile transfection efficiency was compared and normalized to Lipofectamine® 2000 efficiency (value of 1 in Tables 1-5 and 7; bold numbers). All experiments were done in triplicate.
(§2) Tables 1-7: RLuc (pDNA) or EGFP (mRNA) expression levels were normalized to Lipofectamine reagents (value=1) and expressed as fold-times signal increase. In the case of siRNA, the siRNA treated cells fluorescence was compared with siMOCK control fluorescence, while Cas9-RNP mediated knockout was measured against the fluorescence of untreated cells. In both siRNA and Cas9-RNP, values are expressed as % fluorescence reduction. Amphiphile concentration was 5 μM in all cases. All experiments were performed in triplicate.
(§3) Tables 8-13 show the mean (triplicates) luminescent intensity (RLU) measured after the transfection of RLuc pDNA by different amphiphiles at different concentrations in a variety of cell lines. Background luminescence values, accounted by untransfected control cells, were subtracted for processing.

Hela cells = experiment: RLuc pDNA delivery, robotic library screening, HeLa; conditions: Hela
Description: as §1, with “Amphihilic molecule stock solutions in DMSO were diluted with DMEM and freshly mixed with pDNA stock solutions in DMEM prior to transfection experiments, to afford several complexes at different amphiphile concentration (2-10 μM) while maintaining a constant final pDNA concentration of 2 ng/μL.” left out
as §2, §3

HCT116 cells = experiment: RLuc pDNA delivery, robotic library screening, HCT116
Hek293 cells = experiment: RLuc pDNA delivery, robotic library screening, Hek293
A549 cells = experiment: RLuc pDNA delivery, robotic library screening, A549
Description: as §1, §2, §3

ARPE19 cells = experiment: RLuc pDNA delivery, robotic library screening, ARPE19

Q: What does the source list for “Ac-RK*RRK*K*R-NH2 (Ac-RK(NHNH2)RRK(NHNH2)K(NHNH2)R-NH2; not fully specified; printed as Ac-RK*RRK*K*R-NH2; also: K*2,K*5,K*6: native or modified lysine (ε-amide to a linker)) [7.3(L-R)]”?
A: mean luminescent intensity (RLuc pDNA) (HepG2 cells; 5 μM): 1696 RLU; mean luminescent intensity (RLuc pDNA) (HepG2 cells; 10 μM): 22303 RLU; mean luminescent intensity (RLuc pDNA) (HepG2 cells; 15 μM): 6498 RLU; mean luminescent intensity (RLuc pDNA) (Hela cells; Myristoleyl, 5 μM): 3647 RLU; mean luminescent intensity (RLuc pDNA) (Hela cells; Myristoleyl, 10 μM): 2076 RLU; mean luminescent intensity (RLuc pDNA) (Hela cells; Myristoleyl, 15 μM): 22 RLU; mean luminescent intensity (RLuc pDNA) (Hela cells; Palmitoleyl, 5 μM): 62538 RLU; mean luminescent intensity (RLuc pDNA) (Hela cells; Palmitoleyl, 10 μM): 25113 RLU; mean luminescent intensity (RLuc pDNA) (Hela cells; Palmitoleyl, 15 μM): 3405 RLU; mean luminescent intensity (RLuc pDNA) (Hela cells; Petroselinyl, 5 μM): 4972 RLU; mean luminescent intensity (RLuc pDNA) (HCT116 cells; Myristoleyl, 5 μM): 7939 RLU; mean luminescent intensity (RLuc pDNA) (HCT116 cells; Myristoleyl, 10 μM): −83 RLU; mean luminescent intensity (RLuc pDNA) (HCT116 cells; Myristoleyl, 15 μM): −41 RLU; mean luminescent intensity (RLuc pDNA) (HCT116 cells; Palmitoleyl, 5 μM): 22225 RLU; mean luminescent intensity (RLuc pDNA) (HCT116 cells; Palmitoleyl, 10 μM): 41280 RLU; mean luminescent intensity (RLuc pDNA) (HCT116 cells; Petroselinyl, 5 μM): 2832 RLU; mean luminescent intensity (RLuc pDNA) (HCT116 cells; Petroselinyl, 10 μM): 9686 RLU; mean luminescent intensity (RLuc pDNA) (Hek293 cells; Myristoleyl, 5 μM): 46216 RLU; mean luminescent intensity (RLuc pDNA) (Hek293 cells; Myristoleyl, 10 μM): 51837 RLU; mean luminescent intensity (RLuc pDNA) (Hek293 cells; Myristoleyl, 15 μM): 10351 RLU; mean luminescent intensity (RLuc pDNA) (Hek293 cells; Palmitoleyl, 5 μM): 73751 RLU; mean luminescent intensity (RLuc pDNA) (Hek293 cells; Palmitoleyl, 10 μM): 115755 RLU; mean luminescent intensity (RLuc pDNA) (Hek293 cells; Palmitoleyl, 15 μM): 29282 RLU; mean luminescent intensity (RLuc pDNA) (Hek293 cells; Petroselinyl, 5 μM): 9983 RLU; mean luminescent intensity (RLuc pDNA) (Hek293 cells; Petroselinyl, 10 μM): 59396 RLU; mean luminescent intensity (RLuc pDNA) (Hek293 cells; Petroselinyl, 15 μM): 8037 RLU; mean luminescent intensity (RLuc pDNA) (A549 cells; Oleyl, 5 μM): 13651 RLU; mean luminescent intensity (RLuc pDNA) (A549 cells; Palmitoleyl, 5 μM): 5366 RLU; mean luminescent intensity (RLuc pDNA) (A549 cells; Palmitoleyl, 15 μM): 12440 RLU; mean luminescent intensity (RLuc pDNA) (A549 cells; Petroselinyl, 15 μM): 7194 RLU; mean luminescent intensity (RLuc pDNA) (ARPE19 cells; Myristoleyl, 5 μM): 522 RLU; mean luminescent intensity (RLuc pDNA) (ARPE19 cells; Myristoleyl, 10 μM): 20 RLU; mean luminescent intensity (RLuc pDNA) (ARPE19 cells; Myristoleyl, 15 μM): 56 RLU; mean luminescent intensity (RLuc pDNA) (ARPE19 cells; Palmitoleyl, 5 μM): 2987 RLU; mean luminescent intensity (RLuc pDNA) (ARPE19 cells; Petroselinyl, 5 μM): 2177 RLU
